“And” between values parts separate entries of the source, which are not always exact repeats. Equal entries are not always repeated.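 48-hour exposure; five concentrations; linearly interpolated endpoints. Here, GI50 denotes the concentration required for 50% inhibition of growth. TGI: total growth inhibition.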
Legend:
Experiment in all cases: NCI-60 cell line screen, 48 h
NCI/ADR-RES ovarian = system: NCI/ADR-RES ovarian
HCT-116 colon = system: HCT-116 colon
UACC-257 melanoma = system: UACC-257 melanoma
SF-268 CNS = system: SF-268 CNS
BT-549 breast = system: BT-549 breast
SNB-19 CNS = system: SNB-19 CNS
EKVX NSCLC = system: EKVX NSCLC
OVCAR-8 ovarian = system: OVCAR-8 ovarian
SK-OV-3 ovarian = system: SK-OV-3 ovarian
LOX IMVI melanoma = system: LOX IMVI melanoma
OVCAR-3 ovarian = system: OVCAR-3 ovarian
K-562 leukemia = system: K-562 leukemia
IGROV1 ovarian = system: IGROV1 ovarian
MALME-3M melanoma = system: MALME-3M melanoma
SN12C renal = system: SN12C renal
SK-MEL-2 melanoma = system: SK-MEL-2 melanoma
HT29 colon = system: HT29 colon
NCI-H460 lung = system: NCI-H460 lung
786-0 renal = system: 786-0 renal
HOP-92 NSCLC = system: HOP-92 NSCLC
COLO 205 colon = system: COLO 205 colon
HCT-15 colon = system: HCT-15 colon
A498 renal = system: A498 renal
TK-10 renal = system: TK-10 renal
OVCAR-5 ovarian = system: OVCAR-5 ovarian
SW-620 colon = system: SW-620 colon
MDA-MB-231 breast = system: MDA-MB-231 breast
UACC-62 melanoma = system: UACC-62 melanoma
HS 578T breast = system: HS 578T breast
NCI-H226 lung = system: NCI-H226 lung
MDA-N = system: MDA-N
UO-31 renal = system: UO-31 renal
T-47D breast = system: T-47D breast
RXF 393 renal = system: RXF 393 renal
SK-MEL-5 melanoma = system: SK-MEL-5 melanoma
SF-539 CNS = system: SF-539 CNS
HCC-2998 colon = system: HCC-2998 colon
HOP-62 NSCLC = system: HOP-62 NSCLC
CCRF-CEM leukemia = system: CCRF-CEM leukemia
MDA-MB-435 = system: MDA-MB-435
SR leukemia = system: SR leukemia
SF-295 CNS = system: SF-295 CNS
PC-3 prostate = system: PC-3 prostate
U251 CNS = system: U251 CNS
CAKI-1 renal = system: CAKI-1 renal
SNB-75 CNS = system: SNB-75 CNS
ACHN renal = system: ACHN renal
NCI-H23 lung = system: NCI-H23 lung
OVCAR-4 ovarian = system: OVCAR-4 ovarian
SK-MEL-28 melanoma = system: SK-MEL-28 melanoma
A549 NSCLC = system: A549 NSCLC
KM12 colon = system: KM12 colon
HL-60(TB) leukemia = system: HL-60(TB) leukemia
DU-145 prostate = system: DU-145 prostate
MOLT-4 leukemia = system: MOLT-4 leukemia
NCI-H522 lung = system: NCI-H522 lung
RPMI-8226 leukemia = system: RPMI-8226 leukemia
M14 melanoma = system: M14 melanoma
MCF7 breast = system: MCF7 breast

c1ccc2c(c1)[nH]c1c2cc[n+]2cc3c(cc12)CCCC3
GI50 (NCI/ADR-RES ovarian): 93.8 µM
TGI (NCI/ADR-RES ovarian): > 100 µM
GI50 (HCT-116 colon): 3.3 µM
TGI (HCT-116 colon): 14.2 µM and 4.66 µM
GI50 (UACC-257 melanoma): 2.09 µM
TGI (UACC-257 melanoma): 6.83 µM and 25.6 µM
TGI (SF-268 CNS): 12.8 µM and 18.3 µM
GI50 (BT-549 breast): 8.96 µM
TGI (BT-549 breast): 25.5 µM and 8.29 µM
TGI (SNB-19 CNS): 12 µM and 9.35 µM
TGI (EKVX NSCLC): 32.4 µM
GI50 (OVCAR-8 ovarian): 1.95 µM
TGI (OVCAR-8 ovarian): 7.57 µM and 11.2 µM
TGI (SK-OV-3 ovarian): 14.2 µM and 14.4 µM
GI50 (LOX IMVI melanoma): 2.03 µM
TGI (LOX IMVI melanoma): 5.05 µM and 6.75 µM
GI50 (OVCAR-3 ovarian): 2.91 µM
GI50 (K-562 leukemia): 2.76 µM
TGI (K-562 leukemia): 12.5 µM and 10.8 µM
GI50 (IGROV1 ovarian): 5.59 µM
TGI (IGROV1 ovarian): 25 µM and 25.5 µM
GI50 (MALME-3M melanoma): 1.65 µM
TGI (MALME-3M melanoma): 3.54 µM
GI50 (SN12C renal): 3.05 µM
TGI (SN12C renal): 12.8 µM and 12.1 µM
GI50 (SK-MEL-2 melanoma): 1.44 µM
GI50 (HT29 colon): 2.4 µM
TGI (HT29 colon): 9.74 µM and 19.6 µM
GI50 (NCI-H460 lung): 1.66 µM
TGI (NCI-H460 lung): 4.54 µM and 3.22 µM
GI50 (786-0 renal): 4 µM
TGI (786-0 renal): 16.4 µM and 12.7 µM
GI50 (HOP-92 NSCLC): 4.57 µM
TGI (HOP-92 NSCLC): 24.8 µM
GI50 (COLO 205 colon): 1.9 µM
TGI (COLO 205 colon): 5.45 µM and 3.56 µM
GI50 (HCT-15 colon): 23.3 µM
TGI (HCT-15 colon): > 100 µM and 23.2 µM
GI50 (A498 renal): 3.48 µM
TGI (A498 renal): 13.9 µM and > 100 µM
TGI (TK-10 renal): 25.6 µM
GI50 (OVCAR-5 ovarian): 3.87 µM
TGI (OVCAR-5 ovarian): 17.9 µM and 13.6 µM
GI50 (SW-620 colon): 2.35 µM
TGI (SW-620 colon): 11.6 µM and 16.2 µM
GI50 (MDA-MB-231 breast): 2.97 µM
TGI (MDA-MB-231 breast): 10 µM and 12.7 µM
GI50 (UACC-62 melanoma): 2.02 µM
TGI (UACC-62 melanoma): 4.97 µM
GI50 (HS 578T breast): 2.63 µM
TGI (HS 578T breast): 12.2 µM and > 100 µM
TGI (NCI-H226 lung): 7.61 µM and 5.77 µM
TGI (MDA-N): 3.21 µM
GI50 (UO-31 renal): 14.4 µM
TGI (UO-31 renal): 30.7 µM and 33 µM
GI50 (T-47D breast): 2.47 µM
TGI (T-47D breast): 13.6 µM and 22.4 µM
GI50 (RXF 393 renal): 2.98 µM
TGI (RXF 393 renal): 12.5 µM
GI50 (SK-MEL-5 melanoma): 1.29 µM
TGI (SK-MEL-5 melanoma): 3.22 µM and 5.83 µM
GI50 (SF-539 CNS): 3 µM
TGI (SF-539 CNS): 11.7 µM and 6.7 µM
GI50 (HCC-2998 colon): 2.67 µM
TGI (HCC-2998 colon): 7.71 µM and 4.66 µM
GI50 (HOP-62 NSCLC): 3.77 µM
TGI (HOP-62 NSCLC): 17 µM and 7.86 µM
GI50 (CCRF-CEM leukemia): 2.76 µM
TGI (CCRF-CEM leukemia): 12.7 µM
TGI (MDA-MB-435): 6.34 µM and 7.54 µM
GI50 (SR leukemia): 2.51 µM
TGI (SR leukemia): 7.52 µM and 4.19 µM
TGI (SF-295 CNS): 16 µM and 14.5 µM
TGI (PC-3 prostate): 10.9 µM and 29 µM
TGI (U251 CNS): 9.77 µM and 12.1 µM
TGI (CAKI-1 renal): 36.2 µM and 32 µM
GI50 (SNB-75 CNS): 3.07 µM
TGI (SNB-75 CNS): 12.9 µM and 35.9 µM
TGI (ACHN renal): 16.1 µM and 14.1 µM
TGI (NCI-H23 lung): 6.95 µM
GI50 (OVCAR-4 ovarian): 2.14 µM
TGI (OVCAR-4 ovarian): 7.6 µM and 5.73 µM
TGI (SK-MEL-28 melanoma): 5.26 µM and 4.19 µM
GI50 (A549 NSCLC): 4.88 µM
TGI (A549 NSCLC): 24.6 µM and 30.8 µM
GI50 (KM12 colon): 2.3 µM
TGI (KM12 colon): 9.85 µM and 6.53 µM
GI50 (HL-60(TB) leukemia): 1.27 µM
TGI (HL-60(TB) leukemia): 5.39 µM
TGI (DU-145 prostate): 11 µM and 17 µM
GI50 (MOLT-4 leukemia): 3.74 µM
TGI (MOLT-4 leukemia): 13.7 µM and 3.73 µM
GI50 (NCI-H522 lung): 2.27 µM
TGI (NCI-H522 lung): 5.48 µM and 6.23 µM
GI50 (RPMI-8226 leukemia): 2.16 µM
TGI (RPMI-8226 leukemia): 6.28 µM and 3.73 µM
GI50 (M14 melanoma): 3.01 µM
TGI (M14 melanoma): 14 µM and 7.29 µM
TGI (MCF7 breast): 10.9 µM and 11 µM
